The results in this text go back to patent US20140329682A1, “METHOD OF CONTROLLING WEED IN A SUGAR CANE FIELD” (SUMITOMO CHEMICAL COMPANY, LIMITED, priority 2011, published 2014).

The test system of series [1] is sugar cane. As to the kind of experiment: Phytotoxicity on sugar cane, soil surface spray after planting (Example 4). To be noted: Example 4; 3 cm stem cutting, one node; soil surface spray on date of planting; four weeks after treatment. An excerpt:
(§1) The “phytotoxicity” evaluated herein is the damage characteristic determined to be due to a treated compound, and is clearly discriminated from the damage characteristic caused by a harmful animal or plant disease.
(§2) A 30 cm to 40 cm stem cutting of sugar cane is placed on a wet soil, and germination is stimulated. The stem cutting from which a bud has grown to about 1 cm is selected, and the length of the stem cutting is adjusted to be 3 cm so that the stem cutting has one node. A soil is packed into a plastic pot, and seeds of Amaranthus retroflexus are seeded thereon. The stem cutting of sugar cane is planted in the soil packed in the pot at a depth of 2 cm. […] Thereafter, the pot for a test is placed in a greenhouse.

In series [2] the test system is Amaranthus retroflexus. The series is described as follows: Herbicidal activity, spray above weed before planting, azole-fungicide-treated stem cutting (Example 11). In kind it is in vivo. To be noted: sprayed above weed, 3 cm stem cutting treated with azaconazole, bitertanol or another listed azole-type fungicide planted one week after treatment, four weeks after treatment.

Series [3] has as its system Amaranthus retroflexus. As to the kind of experiment: Herbicidal activity, spray above weed one week before planting (Example 5). In kind it is in vivo. To be noted: sprayed above weed three weeks after seeding, 3 cm stem cutting planted one week after treatment, four weeks after treatment.
From the text: A 30 cm to 40 cm stem cutting of sugar cane is placed on a wet soil, and germination is stimulated. The stem cutting from which a bud has been grown to about 1 cm is selected, and the length of the stem cutting is adjusted to be 3 cm so that the stem cutting has one node.
In series [4] the test system is sugar cane. As to the kind of experiment: Phytotoxicity on sugar cane, spray above weed before planting, azole-fungicide-treated stem cutting (Example 11). To be noted: Example 11; sprayed above weed; 3 cm stem cutting treated with azaconazole, bitertanol or another listed azole-type fungicide planted one week after treatment; four weeks after treatment. The protocol: as §1
A soil is packed into a plastic pat, and seeds of Amaranthus retroflexus are seeded thereon. Thereafter, the pot is placed in a greenhouse, and the weed is grown.
A 30 cm to 40 cm stem cutting of sugar cane is placed on a wet soil, and germination is stimulated. The stem cutting from which a bud has grown to about 1 cm is selected, and the length of the stem cutting is adjusted to be 3 cm so that the stem cutting has one node. Azaconazole, bitertanol, bromoconazole, cyproconazole, difenoconazole, diniconazole, epoxyconazole, fenbuconazole, fluquinconazole, flusilazole, flutriafol, hexaconazole, imibenconazole, ipconazole, metconazole, myclobutanil, penconazole, propiconazole, prothioconazole, simeconazole, tebuconazole, tetraconazole, triadimenol, triticonazole, fenarimol, nuarimol, pyrifenox, imazalil, oxpoconazole fumarate, pefurazoate, procloraz or triflumizole is adhered to the stem cutting.
(§3) The pot for a test is placed in a greenhouse.

Series [5] deals with Amaranthus retroflexus. As to the kind of experiment: Herbicidal activity, spray above weed before planting, strobilurin-treated stem cutting (Example 9). To be noted: sprayed above weed, 3 cm stem cutting treated with kresoxim-methyl, azoxystrobin or another listed strobilurin fungicide planted one week after treatment, four weeks after treatment. In kind it is in vivo.
From the text: A 30 cm to 40 cm stem cutting of sugar cane is placed on a wet soil, and germination is stimulated. The stem cutting from which a bud has grown to about 1 cm is selected, and the length of the stem cutting is adjusted to be 3 cm so that the stem cutting has one node. Kresoxim-methyl, azoxystrobin, trifloxystrobin, fluoxastrobin, picoxystrobin, pyraclostrobin, dimoxystrobin, pyribencarb, metominostrobin, orysastrobin, enestrobin, pyraoxystrobin or pyrametostrobin is adhered to the stem cutting.
Series [6] has as its system Amaranthus retroflexus. The series is described as follows: Herbicidal activity, spray above weed before planting, insecticide-treated stem cutting (Example 7). To be noted: sprayed above weed, 3 cm stem cutting treated with clothianidin, thiamethoxiam, imidacloprid, dinotefuran, nitenpyram, acetamiprid or thiacloprid planted one week after treatment, four weeks after treatment. Format: in vivo.

Series [7] relates to sugar cane. As to the kind of experiment: Phytotoxicity on sugar cane, soil surface spray, insecticide-treated stem cutting (Example 6). To be noted: Example 6; 3 cm stem cutting treated with clothianidin, thiamethoxiam, imidacloprid, dinotefuran, nitenpyram, acetamiprid or thiacloprid; soil surface spray; four weeks after treatment.
From the text: as §1
as §2, with “one node. Clothianidin, thiamethoxiam, imidacloprid, dinotefuran, nitenpyram, acetamiprid or thiacloprid is adhered to the stem cutting. A soil” for “one node. A soil”, “sugar cane treated with clothianidin, thiamethoxiam, imidacloprid, dinotefuran, nitenpyram, acetamiprid or thiacloprid is planted” for “sugar cane is planted”, “soil packed into the pot” for “soil packed in the pot”

For series [8], the system named is sugar cane. As to the kind of experiment: Phytotoxicity on sugar cane, spray above weed before planting, insecticide-treated stem cutting (Example 7). To be noted: Example 7; sprayed above weed; 3 cm stem cutting treated with clothianidin, thiamethoxiam, imidacloprid, dinotefuran, nitenpyram, acetamiprid or thiacloprid planted one week after treatment; four weeks after treatment. The method, then: as §1
A soil is packed into a plastic pot, and seeds of Amaranthus retroflexus are seeded thereon. Thereafter, the pot is placed in a greenhouse, and the weed is grown.
A 30 cm to 40 cm stem cutting of sugar cane is placed on a wet soil, and germination is stimulated. The stem cutting from which a bud has grown to about 1 cm is selected, and the length of the stem cutting is adjusted to be 3 cm so that the stem cutting has one node. Clothianidin, thiamethoxiam, imidacloprid, dinotefuran, nitenpyram, acetamiprid or thiacloprid is adhered to the stem cutting.
as §3

Series [9] deals with Amaranthus retroflexus. As to the kind of experiment: Herbicidal activity, soil surface spray after planting (Example 4). To be noted: 3 cm stem cutting, one node, soil surface spray on date of planting, four weeks after treatment. In kind it is in vivo.
Series [10] deals with Amaranthus retroflexus. As to the kind of experiment: Herbicidal activity, spray from upper side of pot, sugar cane at 4 to 5 leaves (Example 3). In kind it is in vivo. To be noted: 70 g (active ingredient)/ha, four weeks after treatment, scale 0 to 100. The protocol: A sugar cane, a foliage of which had grown to about 4 to 5 leaves, was selected, and the length of the stem cutting was adjusted to be 8 cm or 25 cm. The 8 cm stem cutting had one node, and the 25 cm stem cutting had two nodes. A soil was packed into a 32 cm×25 cm×11 cm plastic pot, and seeds of Amaranthus retroflexus were seeded thereon. […] On the date when the stem cutting was planted, and after planting of the stem cutting, a water-diluted liquid of saflufenacil (140 ppm) was uniformly sprayed with a sprayer from an upper side of the pot at an amount described in Table 3. The water-diluted liquid of saflufenacil was prepared by dissolving a predetermined amount of saflufenacil in acetone containing 2% (w/v) Tween 20, and diluting this solution with water so that the acetone concentration became 10% by volume. Thereafter, the pot for a test was placed in a greenhouse. One week after treatment with saflufenacil, phytotoxicity on sugar cane was determined and, four weeks after treatment with saflufenacil, the herbicidal activity against Amaranthus retroflexus was determined.

With `CC(C)N(C)S(=O)(=O)NC(=O)c1cc(-n2c(=O)cc(C(F)(F)F)n(C)c2=O)c(F)cc1Cl` [Saflufenacil, saflufenacil], the phytotoxicity entry in the series on sugar cane [1], in the series on sugar cane [4], in the series on sugar cane [7] and in the series on sugar cane [8] was “significant phytotoxicity on sugar cane is not observed” throughout. Besides, the “herbicidal activity against Amaranthus retroflexus” value in the series on Amaranthus retroflexus [2], in the series with Amaranthus retroflexus [3], in the series with Amaranthus retroflexus [5], with Amaranthus retroflexus [6] and in the series on Amaranthus retroflexus [9] was “the controlling effect on a weed can be confirmed” each time. For the same compound, the Herbicidal activity in the series with Amaranthus retroflexus [10] (stem cutting 8 cm) and in the series with Amaranthus retroflexus [10] (stem cutting 25 cm) was 100 each time.
